Laboratory results as given in patent US8022036B2, “Use of thymosin alpha 1 for the treatment of immunological diseases” (Sigma-Tau Industrie Farmaceutiche Riunite S.p.A., priority 2006, dated 2011).
No end group written: not given here.

Experiments:
[1] = test system: human non-small cell lung cancer (NSCLC) cells; conditions: subcutaneous administration, nude mice; cited from earlier work
[2] = test system: peripheral CD14+ cells (GM-DCs, FL-DCs); assay: Human DC generation from peripheral CD14+ cells, surface expression; type: cell-based
Description: (§1) GM-DCs or FL-DCs were obtained from purified CD14+ monocytes from healthy donors or transplanted patients (1 month post-HSCT) cultured in Iscove's modified medium for 7-9 days, in the presence of rGM-CSF (Schering-Plough, Milan, Italy) and rIL-4 (Peprotech, Inalco, Milan, Italy) or FLT3-L (Immunex Corporation, Seattle, Wash.) (Blood. 2004; 103:4232-4239). DC recovery was between 20-30% reduced in cultures from transplanted patients. Murine GM-DCs or FL-DCs were obtained from bone marrow cells for 7-9 days, as described (Blood. 2004; 103:4232-4239). Thymosin alpha 1 and sThymosin alpha 1 were added to the cultures at 20 ng/mL. DCs (>99% CD11c+ consisting of 90-95% CD8-, 5-10% CD8+, and 1-5% B220+ cells) were purified from spleens (spDCs) by magnetic-activated sorting using CD11c MicroBeads and MidiMacs (Miltenyi Biotech). DC populations were further separated into CD8−, CD8+ and B220+ fractions by means of CD8 or B220 MicroBeads (Miltenyi Biotech). DCs were pulsed in serum-free Iscove medium for 24 hours with live unopsonized Aspergillus conidia or Zymosan from Saccharomyces cerevisiae (Sigma) or CpG-ODN 2006 as described.7 Phagocytosis was done as described (Blood. 2004; 103:4232-4239). Photographs were taken using a high Resolution Microscopy Color Camera AxioCam, using the AxioVision Software Rel. 3.1 (Carl Zeiss, Milan, Italy).
(§2) DCs were analyzed for antigen expression with a FACScan flow cytofluorometer (Becton Dickinson, Mountain View, Calif.) equipped with CELLQuest™ software and using conjugated mAbs from PharMingen (Blood. 2004; 103:4232-4239).
(A) Surface expression of CD11c, CD1a and CD123 on DCs derived from peripheral CD14+ cells of different donors with GM-CSF/IL-4 (GM-DCs) or FLT3L (FL-DCs) in the presence of Thymosin alpha 1. Percent of positive cells is indicated.

GM-DCs or FL-DCs = assay: Cytokine production and T cell priming by human DCs (ELISA); type: cell-based
Description: as §1
Cytokine content was assessed by enzyme-linked immunosorbent assays (Endogen Human Elisa Kits, R&D Systems and Euroclone, Milan, Italy). AID EliSpot assay kits (Amplimedical, Buttigliera Alta, Turin, Italy) were used on purified splenic CD4+ Tcells cocultured with conidia-pulsed DCs for 5 days to enumerate cytokine-producing cells (Blood. 2003; 102:3807-3814). 1-MT was used at 2 μM.
(C) Cytokine production (pg/mL by ELISA) by Thymosin alpha 1-induced DCs from healthy donors cultured in serum-free medium (1×10^6 cells/mL) with unopsonized Aspergillus conidia (5×10^5/mL) or 10 μg/mL Zymosan or 2 μg/mL CpG-B ODN 2006 for 24 hours. The data shown are aggregated results from three independent experiments and presented in the mean±SD. […]

[3] = test system: bone marrow cells (GM-DCs, FL-DCs); assay: Murine DC generation from bone marrow cells, flow cytometry and light microscopy; type: cell-based, mouse
Description: as §1, §2
To assess how Thymosin alpha 1 would affect the phenotypic and functional properties of murine DCs, bone marrow cells were grown for 7-9 days in medium containing GM-CSF/IL4 or FLT3L, in the presence of Thymosin alpha 1 or a control, scrambled peptide. After maturation, cells were analyzed by flow cytometry and light microscopy (FIG. 1A).
(A) Surface expression of CD11c, CD 11b and B220 on DCs derived from bone marrow of C57BL6, TLR9−/− or IFN-aβR−/−mice and cultured with GM-CSF/IL-4 (GM-DCs) or FLT3L (FL-DCs) in the presence of Thymosin alpha 1 (+) or the scrambled peptide ( ). Percent of double positive cells is indicated.

[4] = test system: methylcholanthrene-induced fibrosarcoma; conditions: mice; cited from earlier work
[5] = GM-CSF/IL-4-treated cultures, healthy donors

Thymosin alpha 1: naturally occurring thymic peptide; supplied as purified, endotoxin-free sterile lyophilized acetylated polypeptide from SciClone Pharmaceuticals (Ac-SDAAVDTSSEITTKDLKEKKEVVEEAEN; UniProt P06454 2-29, looked up)
tumor volume [1]: significantly decreased tumor volume | mobilization of CD123+ pDCs and CD1a+ DCs in FLT3-L cultures ([2]; FLT3-L cultures): No such effects were observed | mobilization of CD1a+DCs [2, 5]: decreasing that of CD1a+DCs | mobilization of CD123+ pDCs [2, 5]: promoted the mobilization of CD123+ pDCs | IL-10 production by GM-DCs (GM-DCs or FL-DCs; healthy donors, Aspergillus conidia, 24 hours): produced increased levels of IL-10 | IFN-a production (GM-DCs or FL-DCs; in response to Aspergillus conidia, Zymosan or CpG ODN): mainly produced by FL-DCs or Thymosin alpha 1-treated GM-DCs | priming for IL-10-producing CD4+ T cells (GM-DCs or FL-DCs; in vitro, Thymosin alpha 1-treated GM-DCs): primed for IL-10-producing CD4+ T cells in vitro | B220+CD11c+ cells in FL-DCs ([3]; FLT3L culture, 20 ng/mL): not increased | total yield of cells ([3]; GM-CSF/IL-4 culture, 20 ng/mL): did not affect total yield of cells | expansion of pDCs in GM-DCs from TLR9-/- or IFN-aβR-/- mice ([3]; GM-DCs from knockout mice): not observed | expansion of B220+CD11c+ cells ([3]; Thymosin alpha 1 alone, without GM-CSF/IL-4 or FLT3L): not observed | occurrence of pDCs (B220+CD11c+ cells) in GM-DCs ([3]; bone marrow cells, GM-CSF/IL-4, 7-9 days, peptide 20 ng/mL): greatly increased the occurrence of pDCs in GM-DCs | pulmonary metastases [4]: reduced
